From US11795204B2 (Zealand Pharma A/S, priority 2012, dated 2023)
Square brackets hold non-standard residues; d marks the D form. Peptide text beside a SMILES is read from it. Aib = CC(C)(N)C(=O)O

Columns and labels:
human Glucagon-R = target: T1, human Glucagon-R (Homo sapiens, UniProt P47871); test: Glucagon receptor assay (cAMP induction, AlphaScreen); type: cell-based; details: HEK293 cells expressing the human Glucagon-R, 15 min at 37° C., read-out: GCG-R EC50 in vitro
T1 construct: expressed in transfected cells
In short: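 Stable G418-selected clonal cells expressing the receptor were washed, then exposed to rising test peptide concentrations in IBMX-containing assay buffer for 15 min at 37° C. After lysis (≥10 min, room temperature), lysate was incubated 1 h with AlphaScreen donor/acceptor beads and cAMP content read.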

physchem = details: pH 7.5
In short: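 Peptide stock 2 mg/ml (A280-quantified) in water at pH 2.5, diluted 1:1 into 100 mM acetate pH 4.0 or 100 mM phosphate pH 7.5. Absorbance at 280 and 325 nm read at ambient temperature, single samples (n=1).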

[1] = Chemical stability assessment (RP-HPLC normalized purity); type: physicochemical; details: for Normalized purity pH 4.0 after 14 days: 1 mg/ml in 50 mM acetate buffer pH 4.0, 40° C.; for Normalized purity pH 7.5 after 14 days: 1 mg/ml in 50 mM phosphate buffer pH 7.5, 40° C.
Procedure: Samples were placed in glass vials and incubated at 40° C. The samples were analysed by reverse-phase HPLC on a C18 column with gradient elution using an acetonitrile/trifluoroacetic acid/water eluent system. The area-percentage (area-%) of the main peak after incubation time T=t (relative to time T=0) was detected by UV spectrometry at 220 nm. The purity was first determined as follows: Purity(area-%)=(area of main peak/total area of all peaks)×100. […] Normalized purity values in Table 2 were determined after 14 days of incubation.

T1 sequence (P47871 26-477): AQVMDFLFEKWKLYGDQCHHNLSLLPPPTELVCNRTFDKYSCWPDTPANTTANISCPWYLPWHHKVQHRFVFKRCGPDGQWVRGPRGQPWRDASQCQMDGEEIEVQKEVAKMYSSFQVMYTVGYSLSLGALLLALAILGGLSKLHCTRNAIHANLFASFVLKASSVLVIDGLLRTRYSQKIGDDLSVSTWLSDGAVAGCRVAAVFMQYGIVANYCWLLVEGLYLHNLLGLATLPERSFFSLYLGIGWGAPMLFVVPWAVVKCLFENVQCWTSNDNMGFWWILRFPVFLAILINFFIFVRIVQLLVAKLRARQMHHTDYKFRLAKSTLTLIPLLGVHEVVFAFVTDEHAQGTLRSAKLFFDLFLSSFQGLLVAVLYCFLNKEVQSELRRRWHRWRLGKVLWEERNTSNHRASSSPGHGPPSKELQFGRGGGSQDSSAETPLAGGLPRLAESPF

Row | Compound | EC50 (human Glucagon-R) [nM] | solubility (physchem) [µg/mL] | Normalized purity pH 4.0 after 14 days [1] [%] | Normalized purity pH 7.5 after 14 days [1] [%]
1 | CC(C)C[C@H](NC(=O)[C@H](Cc1c[nH]c2ccccc12)NC(=O)[C@H](CCCCN)NC(=O)[C@@H](NC(=O)[C@H](Cc1ccccc1)NC(=O)[C@H](CO)NC(=O)[C@H](CCC(=O)O)NC(=O)[C@H](C)NC(=O)[C@H](CCCNC(=N)N)NC(=O)[C@H](C)NC(=O)C(C)(C)NC(=O)[C@H](CC(=O)O)NC(=O)[C@H](CC(C)C)NC(=O)[C@H](Cc1ccc(O)cc1)NC(=O)[C@H](CCCCN)NC(=O)[C@H](CO)NC(=O)[C@H](Cc1ccc(O)cc1)NC(=O)[C@H](CC(=O)O)NC(=O)[C@H](CO)NC(=O)[C@@H](NC(=O)[C@H](Cc1ccccc1)NC(=O)[C@@H](NC(=O)CNC(=O)[C@H](CCC(N)=O)NC(=O)[C@H](CO)NC(=O)[C@@H](N)Cc1c[nH]cn1)[C@@H](C)O)[C@@H](C)O)C(C)C)C(=O)N[C@@H](CCC(=O)O)C(=O)N[C@@H](CO)C(=O)N[C@@H](C)C(=O)O [Compound 30] (H-HSQGTFTSDYSKYLD[Aib]ARAESFVKWLESA-OH) | 0.016 | ≥ 1000 | 88.6 | 91.4
2 | H-HSQGTFTSDYSKYLDEARAKDFVEWLEKT-OH [Compound 5] | 0.17 | ≥ 1000 | 91.8 | 89.6
3 | H-HSQGTFTSDYSKYLDLARAEDFVKWLEST-OH [Compound 17] | 0.029 | ≥ 1000 | 89.9 | 88.3
4 | H-HSQGTFTSDYSKYLDSARAEDFVAWLEST-OH [Compound 4] | 0.34 | ≥ 1000 | 80.5 | 84.6
5 | CC(C)C[C@H](NC(=O)[C@H](Cc1c[nH]c2ccccc12)NC(=O)[C@H](CCCCN)NC(=O)[C@@H](NC(=O)[C@H](Cc1ccccc1)NC(=O)[C@H](CO)NC(=O)[C@H](CCC(=O)O)NC(=O)[C@H](C)NC(=O)[C@H](CCCNC(=N)N)NC(=O)[C@H](C)NC(=O)C(C)(C)NC(=O)[C@H](CC(=O)O)NC(=O)[C@H](CC(C)C)NC(=O)[C@H](Cc1ccc(O)cc1)NC(=O)[C@H](CCCCN)NC(=O)[C@H](CO)NC(=O)[C@H](Cc1ccc(O)cc1)NC(=O)[C@H](CC(=O)O)NC(=O)[C@H](CO)NC(=O)[C@@H](NC(=O)[C@H](Cc1ccccc1)NC(=O)[C@@H](NC(=O)CNC(=O)[C@H](CCC(N)=O)NC(=O)[C@H](CO)NC(=O)[C@@H](N)Cc1c[nH]cn1)[C@@H](C)O)[C@@H](C)O)C(C)C)C(=O)N[C@@H](CCC(=O)O)C(=O)N[C@@H](CO)C(=O)N[C@H](C(=O)O)[C@@H](C)O [Compound 15] (H-HSQGTFTSDYSKYLD[Aib]ARAESFVKWLEST-OH) | 0.03 | ≥ 1000 | 89.1 | 95.1
6 | H-HSQGTFTSDYSKYLDKARAEDFVKWLEST-OH [Compound 3] | 0.03 | ≥ 1000 | 85.0 | 86.5
7 | CC(C)C[C@H](NC(=O)[C@H](Cc1c[nH]c2ccccc12)NC(=O)[C@H](CCCCN)NC(=O)[C@@H](NC(=O)[C@H](Cc1ccccc1)NC(=O)[C@H](CC(=O)O)NC(=O)[C@H](CCC(=O)O)NC(=O)[C@H](C)NC(=O)[C@H](CCCNC(=N)N)NC(=O)[C@H](C)NC(=O)C(C)(C)NC(=O)[C@H](CC(=O)O)NC(=O)[C@H](CC(C)C)NC(=O)[C@H](Cc1ccc(O)cc1)NC(=O)[C@H](CCCCN)NC(=O)[C@H](CO)NC(=O)[C@H](Cc1ccc(O)cc1)NC(=O)[C@H](CC(=O)O)NC(=O)[C@H](CO)NC(=O)[C@@H](NC(=O)[C@H](Cc1ccccc1)NC(=O)[C@@H](NC(=O)CNC(=O)[C@H](CCC(N)=O)NC(=O)[C@H](CO)NC(=O)[C@@H](N)Cc1c[nH]cn1)[C@@H](C)O)[C@@H](C)O)C(C)C)C(=O)N[C@@H](CCC(=O)O)C(=O)N[C@@H](CO)C(=O)N[C@H](C(=O)O)[C@@H](C)O [Compound 12] (H-HSQGTFTSDYSKYLD[Aib]ARAEDFVKWLEST-OH) | 0.03 | ≥ 1000 | 86.8 | 90.8
